Source: patent US4439614A, “5,6-Methano-5,6-dihydroretinoids” (SRI International, priority 1982, dated 1984)

What was measured:
Ornithine Decarboxylase [1] = details: prior-art epoxides; ODC induction in mouse epidermis by tumor-promoting phorbol esters; cited from earlier work
Ornithine Decarboxylase [2] = assay: Inhibition of induction of ornithine decarboxylase (ODC assay) by 12-O-tetradecanoylphorbol-13-acetate in mouse skin; format: in vivo; details: topical, 1 hour before TPA (17 nmol), CD-1 mice
Description: (§1) The ODC assay measures a compound's effect on the prevention of the induction of ODC. The tracheal organ culture assay measures a compound's ability to reverse keratinization. For comparison purposes retinoic acid was also tested by these assays.
The ODC assay is carried out as follows. Female Charles River CD-1 mice from Charles River Breeding Laboratories, Wilmington, Mass., are used (age 7 to 9 weeks). The dorsal hair of the mice is shaved 1 to 2 days before testing, and only mice showing no hair regrowth are used. […] The mice are killed by cervical dislocation five hours after TPA treatment. Determinations are done in triplicate.
The epidermis is obtained from the sacrificed animals. To obtain sufficient material, the dorsal skins from 2 to 3 mice in each treatment group are pooled. The depilatory agent Nudit® (Helena Rubinstein, New York) is applied to the shaved area of the skin; after 5 minutes, it is washed off thoroughly with cold tap water. Then the skin is excised and plunged immediately into ice-cold water; it is then placed in a 55° C. water bath for 30 seconds and reimmersed in ice-cold water for at least another 30 seconds.
The supernatant fraction remaining after centrifugation of the homogenate at 10,000×g for 30 seconds at 0° C. is used for the enzyme assay. Enzyme activity is determined using the microassay for ODC as described by Verma and Boutwell to measure the release of ^14 CO2 from DL-[1-^14 C]-ornithine (58 mCi/mmol) after incubation with the 10,000×g supernatant. The incubations are carried out by decanting, with a Pasteur pipette, 100 μL of the supernatant containing 100 to 120 μg of protein into two or three 15-mL Corex tubes in a shaking water bath at 37° C.

[3] = tested on: Hamster Tracheal Organ Culture; assay: Reversal of keratinization in hamster tracheal organ culture; format: cell-based
Description: as §1
The tracheal organ culture assay is carried out as follows. Tracheas are taken from hamsters that are in very early stages of vitamin A deficiency and placed in organ culture. At the time of culture, the animals are still gaining weight; the tracheal epithelium is generally low columnar or cuboidal, with only occasional patches of squamous metaplasia. […] All tracheas are grown in medium containing no retinoid for the first 3 days. […] Culture medium is changed three times a week, and all of the remaining tracheas are harvested at the end of 10 days in culture. Tracheas are fixed in 10% buffered formalin and embedded in paraffin.

Structure (SMILES) | biological activity in the ornithine decarboxylase (ODC) assay (Ornithine Decarboxylase [1]) | % Inhibition of Control (inhibition of induction of ornithine decarboxylase by TPA in mouse skin) (Ornithine Decarboxylase [2]; dose 17 nmol) | Active Cultures (%) (reversal of keratinization) ([3]; conc 10^-8 M) | Active/Total Cultures (reversal of keratinization) ([3]; conc 10^-8 M) | Active Cultures (%) (reversal of keratinization) ([3]; conc 10^-9 M) | Active/Total Cultures (reversal of keratinization) ([3]; conc 10^-9 M) | Active Cultures (%) (reversal of keratinization) ([3]; conc 10^-10 M) | Active/Total Cultures (reversal of keratinization) ([3]; conc 10^-10 M) | Active Cultures (%) (reversal of keratinization) ([3]; conc 10^-11 M) | Active/Total Cultures (reversal of keratinization) ([3]; conc 10^-11 M) | % Inhibition of Control (inhibition of induction of ornithine decarboxylase by TPA in mouse skin) (Ornithine Decarboxylase [2]; dose 1.7 nmol)
CC(/C=C/C12OC1(C)CCCC2(C)C)=C\C=C\C(C)=C\C(=O)O (stereo not drawn) [5,6-epoxy-5,6-dihydroretinoic acid] | exhibited biological activity |  |  |  |  |  |  |  |  |  | 
CCOC(=O)c1ccc(/C=C(\C)C=CC23OC2(C)CCCC3(C)C)cc1 (stereo not drawn) [(E)-1-(4-carbethoxy)-2-methyl-4-(1,2-epoxy-2,6,6,-trimethylcyclohex-1-yl)-1,3-butadiene] | exhibited biological activity |  |  |  |  |  |  |  |  |  | 
CCOC(=O)c1ccc(/C=C(C)/C=C/C23CC2(C)CCCC3(C)C)cc1 (stereo not drawn) [(E)-1-(4-carbethoxyphenyl)-2-methyl-4-(2,2,6-trimethylbicyclo[4.1.0]hept-1-yl)-1,3-butadiene] |  | 80% | 100% | 7/7 | 77% | 10/13 | 29% | 4/14 | 29% | 2/7 | 
CC1=C(/C=C/C(C)=C/C=C/C(C)=C/C(=O)O)C(C)(C)CCC1 [(E)-retinoic acid, reference compound] |  |  | 100% | 236/236 | 88% | 419/474 | 52% | 134/256 |  |  | 87-91%
CCOC(=O)/C=C(C)/C=C/C=C(C)/C=C/C12CC1(C)CCCC2(C)C (stereo not drawn) [ethyl (E)-5,6-methano-5,6-dihydroretinoate] |  | 70% | 100% | 7/7 | 79% | 11/14 | 50% | 7/14 | 29% | 2/7 | 
